Laboratory results taken from patent EP0104857A1, “Deoxyuridine compounds, methods for preparing them and their use in medicine” (BEECHAM GROUP PLC, priority 1982, dated 1984).
Read-outs that look alike come from different tables or passages of the source.

Tests used:
[1] = system: Herpes simplex type 1 virus (HFEM strain); experiment: Plaque reduction assay in virus-infected Vero cells; format: cell-based; details: Human alphaherpesvirus 1, 96 h, concentration causing 50% reduction in number of virus plaques, HSV-1 HFEM strain, 4 days incubation at 37 C, read-out: PDD50 (the source's name)
Procedure: (§1) Vero (African Green Monkey Kidney) cells were grown to confluence in 24 well multidishes, each well being 1.6 cm in diameter. The cells were infected with Herpes simplex type 1 virus (HFEM strain) and overlaid with 0.5ml of 0.9% agarose (w/v) in maintenance medium. Test compounds prepared in maintenance medium in concentrations ranging from 100 to 0.03 pg/ml in half-log dilution steps, were added in 0.5ml volume. The virus infected cultures were then incubated at 37 °C for 4 days before fixing in 4% formaldehyde solution and staining with carbolfuchsin.

[2] = Cytotoxicity in the plaque reduction assay cultures; format: cell-based, African Green Monkey; details: monkey; minimum concentration of test compound which caused cytotoxicity; Vero cells, 4 days; highest concentration tested 100; read-out: MTD
Procedure: as §1

Row | IC50 ([1]; molar units) | IC50 [1] | Compound | MCC at 96 h [2]
1 | 9 µM | 4.3 µg/mL | O=c1[nH]c(=O)n([C@H]2C[C@H](OC3CCCO3)[C@@H](COC3CCCO3)O2)cc1/C=C/Br (stereo partly drawn) [Example 1, 5-(E-2-Bromovinyl)-2'-deoxy-3',5'-bis-O-(tetrahydrofuran-2-yl)uridine] | > 100 µg/mL
2 | 2.8 µM | 1.1 µg/mL | O=c1[nH]c(=O)n([C@H]2C[C@H](OC3CCCO3)[C@@H](CO)O2)cc1/C=C/Br (stereo partly drawn) [Example 2, 5-(E-2-bromovinyl)-2'-deoxy-3'-O-(tetrahydrofuran-2-yl)uridine] | > 100 µg/mL
3 | 34 µM | 17 µg/mL | O=c1[nH]c(=O)n([C@H]2C[C@H](OC3CCCCO3)[C@@H](COC3CCCCO3)O2)cc1/C=C/Br (stereo partly drawn) [Example 4, 5-(E-2-Bromovinyl)-2'-deoxy-3',5'-bis-O-(tetrahdropyropyran-2-yl)uridine] | 100 µg/mL
4 | 4.3 µM | 1.8 µg/mL | O=c1[nH]c(=O)n([C@H]2C[C@H](OC3CCCCO3)[C@@H](CO)O2)cc1/C=C/Br (stereo partly drawn) [Example 5, 5-(E-2-bromovinyl)-2'-deoxy-3'-O-(tetrahydropyran-2-yl)uridine] | > 100 µg/mL
5 | 170 µM | 69 µg/mL | O=c1[nH]c(=O)n([C@H]2C[C@H](O)[C@@H](COC3CCCCO3)O2)cc1/C=C/Br (stereo partly drawn) [Example 6, 5-(E-2-bromo-vinyl) -2'-deoxy-5'-O-(tetrahydropyran-2-yl) uridine] | > 100 µg/mL
6 | 15 µM | 6.4 µg/mL | CCOC(CC)OC[C@H]1O[C@@H](n2cc(/C=C/Br)c(=O)[nH]c2=O)C[C@@H]1O (stereo partly drawn) [Example 8, 5-(E-2-bromovinyl)-2'-deoxy-5'-O-(1-ethoxypropyl)uridine] | > 100 µg/mL
7 | 126 µM | 72 µg/mL | O=c1[nH]c(=O)n([C@H]2C[C@H](OCOCc3ccccc3)[C@@H](COCOCc3ccccc3)O2)cc1/C=C/Br [Example 10, 3',5'-Bis-O-benzoxmethl-5-(E-2-bromovinyl)-2'-deoxuridine] | > 100 µg/mL
8 | 15 µM | 6.6 µg/mL | O=c1[nH]c(=O)n([C@H]2C[C@H](O)[C@@H](COCOCc3ccccc3)O2)cc1/C=C/Br [Example 12, 5'-O-benzoxymethyl-5-(E-2-bromovinyl)-2'-deoxyuridine] | > 100 µg/mL
9 | 17 µM | 9.1 µg/mL | CCOC(CCl)OC[C@H]1O[C@@H](n2cc(/C=C/Br)c(=O)[nH]c2=O)C[C@@H]1OC(CCl)OCC (stereo partly drawn) [Example 19, 5-(E-2-Bromovinyl)-3',5'-bis-0-(2-chloro-1-ethoxyethyl)-2'-deoxyuridine] | > 100 µg/mL
10 | 7.5 µM | 3.3 µg/mL | CCOC(CCl)O[C@H]1C[C@H](n2cc(/C=C/Br)c(=O)[nH]c2=O)O[C@@H]1CO (stereo partly drawn) [Example 20, 5-(E-2-bromovinyl)-3'-O-(2-chloro-1-ethoxyethyl)-2^1-deoxyuridine] | > 100 µg/mL
11 | 43 µM | 19 µg/mL | CCOC(CCl)OC[C@H]1O[C@@H](n2cc(/C=C/Br)c(=O)[nH]c2=O)C[C@@H]1O (stereo partly drawn) [Example 21, 5-(E-2-bromovinyl)-5'-0-(2-chloro-1-ethoxyethyl)-2'-deoxyuridine] | > 100 µg/mL
